Literature values, collected in patent US9095555B2, “Cannabinoid formulations” (FULL SPECTRUM LABORATORIES LIMITED, priority 2011, dated 2015).

Legend:
[1] = prolonged contact with air, oxidation to cannabinol (CBN)

## CCCCCc1cc(O)c2c(c1)OC(C)(C)[C@@H]1CCC(C)=C[C@@H]21 [Dronabinol, Δ^9-tetrahydrocannabinol]
[1]
  Oxidation stability: prone to oxidation
After oral administration
  Onset of therapeutic potency: 0.5 to 1 h
oral
  Amount reaching the blood stream by absorption through the digestive system: 10-20 % of the administered dose
Post administration, oral
  Peak therapeutic effect lasting: 2 to 4 h
